Regarding `O=C(NC1CC[S+]([O-])CC1)c1cnccc1C(F)(F)F` (stereo not shown) [Example C, N-(Tetrahydrothiopyran-4-yl)-4-trifluoromethylnicotinamide S-oxide], the melting point lay in the range of 243 to 244 °C.

For the compound `O=C(NC1CCOCC1)c1cnccc1C(F)(F)F` [Example A, N-(Tetrahydropyran-4-yl)-4-trifluoromethylnicotinamide], the melting point was 149 to 150 °C.

Regarding `O=C(NC1CCS(=O)(=O)CC1)c1cnccc1C(F)(F)F` [Example D, N-(Tetrahydrothiopyran-4-yl)-4-trifluoromethylnicotinamide S,S-dioxide], the melting point was 248 °C (dec.).

`CC1(C)OCC(NC(=O)c2cnccc2C(F)(F)F)CO1` [Example E, N-(2,2-Dimethyl-1,3-dioxa-cyclohexyl)-4-trifluoromethylnicotinamide]: the melting point lay within 155 to 156 °C.
